Data on 5 molecules can be found in ChEMBL document CHEMBL1139769, “PASS-predicted design, synthesis and biological evaluation of cyclic nitrones as nootropics” (Bioorg Med Chem Lett, 2007).

Series [1] in a line: Partition coefficient, log P of the compound. The conditions noted are these: octanol/water. Format: physicochemical.
The subject of series [2] is Mus musculus. Description: Nootropic effect in Albino mouse assessed as decrease in transfer latency at 75 mg/kg, po after 24 hrs by elevated plus maze test. The format is functional. Details: scale not given: the % may be the effect or the level left.
In series [3] the test system is Mus musculus. The series can be described thus: Nootropic effect in Albino mouse assessed as decrease in transfer latency at 200 mg/kg, ip after 24 hrs by elevated plus maze test. The format is functional. Details: scale not given: the % may be the effect or the level left. The conditions noted are these: route intraperitoneal.

Each structure is given as a SMILES string.

What is called logP is the decadic logarithm of the partition coefficient of the neutral form, usually between octanol and water. `CN(C)c1ccc(C2N(Cc3ccccc3)CC(c3ccc([N+](=O)[O-])cc3)=[N+]2[O-])cc1` (centres undefined) came in with a logP in series [1] of 2.02. Further, the Activity with Mus musculus [2] came to 10.8%.

In series [1], `O=[N+]([O-])c1ccc(C2=[N+]([O-])C(c3ccccc3)N(c3ccccc3)C2)cc1` (centres undefined) came in with a logP of 2.45. The Activity in the series with Mus musculus [2] is on record as 36.4%.

`O=[N+]([O-])c1ccc(C2=[N+]([O-])C(c3ccccc3)N(C3CCCCC3)C2)cc1` (centres undefined) displayed a logP in series [1] of 2.41. The Activity in the series with Mus musculus [2] is recorded as 51.6%.

Molecule `COc1ccc(N2CC(c3ccc([N+](=O)[O-])cc3)=[N+]([O-])C2c2ccc(N(C)C)cc2)cc1` (centres undefined) returned a logP in series [1] of 2.32. Besides, the Activity in the series with Mus musculus [2] is 40.4%.

Turning to `NC(=O)CN1CCCC1=O` [PIRACETAM], the Activity with Mus musculus [3] came to 51.3%.
